Laboratory results as given in ChEMBL document CHEMBL3885861, “Open TG-GATES”.

Species: Rattus norvegicus
Assay: Open TG-GATES - Regimen: Daily Repeat
Type: toxicity, organism-based, Sprague-Dawley
Design: regimen Daily Repeat, gender Male, age 6 weeks
Details: in vivo, po, route gavage; for APTT / Bas / Eos / Fbg / Hb / Ht / Lym / MCH / MCHC / MCV / Mono / Neu / PT / Plat / RBC / Ret / WBC: tissue Blood; for KIDNEY_L / KIDNEY_R / KIDNEY_TOTAL: tissue Kidney; for LIVER: tissue Liver; for A/G / ALP / ALT / AST / BUN / CRE / Ca / Cl / DBIL / GLC / IP / K / LDH / Na / PL / RALB / TBIL / TC / TG / TP / gamma-GTP: tissue Plasma
[1] = 100 mg/kg, 72 h, dose level Middle, time 3 day
[2] = 100 mg/kg, […], dose level Middle, time 7 day
[3] = 100 mg/kg, […], dose level Middle, time 14 day
[4] = 100 mg/kg, […], dose level Middle, time 28 day
[5] = 300 mg/kg, 72 h, dose level High, time 3 day
[6] = 300 mg/kg, […], dose level High, time 7 day
[7] = 300 mg/kg, […], dose level High, time 14 day
[8] = 300 mg/kg, […], dose level High, time 28 day

CCCNC(=O)NS(=O)(=O)c1ccc(Cl)cc1 [CHLORPROPAMIDE]
TERMINAL_BW [1]: 208.2 g
APTT [1]: 17.5 s
Bas [1]: 0%
Eos [1]: 1%
Fbg [1]: 275.8 mg/dL
Hb [1]: 13 g/dL
Ht [1]: 40.2%
Lym [1]: 77.2%
MCH [1]: 20.8 pg
MCHC [1]: 32.5%
MCV [1]: 64.1 fL
Mono [1]: 2.6%
Neu [1]: 18.2%
PT [1]: 16.2 s
Plat [1]: 111.5 x10_4/uL
RBC [1]: 626.8 x10_4/ul
Ret [1]: 6.2%
WBC [1]: 65.6 x10_2/uL
KIDNEY_L [1]: 0.9 g
KIDNEY_R [1]: 0.9 g
KIDNEY_TOTAL [1]: 1.8 g
LIVER [1]: 9.3 g
A/G [1]: 0.8
ALP [1]: 1720.4 IU/L
ALT [1]: 49.2 IU/L
AST [1]: 71.2 IU/L
BUN [1]: 17 mg/dL
CRE [1]: 0.2 mg/dL
Ca [1]: 10.6 mg/dL
Cl [1]: 106.6 meq/L
DBIL [1]: 0.008 mg/dL
GLC [1]: 174.6 mg/dL
IP [1]: 7.7 mg/dL
K [1]: 3.7 meq/L
LDH [1]: 65.6 IU/L
Na [1]: 142.6 meq/L
PL [1]: 154.6 mg/dL
RALB [1]: 2.6 g/dL
TBIL [1]: 0.022 mg/dL
TC [1]: 85.4 mg/dL
TG [1]: 76.6 mg/dL
TP [1]: 5.7 g/dL
gamma-GTP [1]: 1 IU/L
TERMINAL_BW [2]: 237.9 g
TERMINAL_BW [3]: 287.5 g
TERMINAL_BW [4]: 344.3 g
APTT [2]: 17.8 s
Bas [2]: 0%
Eos [2]: 1%
Fbg [2]: 277.2 mg/dL
Hb [2]: 13.2 g/dL
Ht [2]: 39.7%
Lym [2]: 77.8%
MCH [2]: 20.7 pg
MCHC [2]: 33.2%
MCV [2]: 62.3 fL
Mono [2]: 2.8%
Neu [2]: 17.2%
PT [2]: 16 s
Plat [2]: 112.6 x10_4/uL
RBC [2]: 638 x10_4/ul
Ret [2]: 6.6%
WBC [2]: 118.8 x10_2/uL
APTT [3]: 17.7 s
Bas [3]: 0.2%
Eos [3]: 0.8%
Fbg [3]: 275.8 mg/dL
Hb [3]: 13.8 g/dL
Ht [3]: 40.9%
Lym [3]: 79.4%
MCH [3]: 20.8 pg
MCHC [3]: 33.6%
MCV [3]: 62 fL
Mono [3]: 2.2%
Neu [3]: 16.4%
PT [3]: 16 s
Plat [3]: 107 x10_4/uL
RBC [3]: 660.4 x10_4/ul
Ret [3]: 4.7%
WBC [3]: 97.8 x10_2/uL
APTT [4]: 19.5 s
Bas [4]: 0%
Eos [4]: 1%
Fbg [4]: 290.4 mg/dL
Hb [4]: 14.6 g/dL
Ht [4]: 43.4%
Lym [4]: 76.4%
MCH [4]: 19.4 pg
MCHC [4]: 33.5%
MCV [4]: 57.8 fL
Mono [4]: 2.6%
Neu [4]: 18.6%
PT [4]: 16.2 s
Plat [4]: 107.8 x10_4/uL
RBC [4]: 751 x10_4/ul
Ret [4]: 2.5%
WBC [4]: 90.2 x10_2/uL
KIDNEY_L [2]: 1 g
KIDNEY_R [2]: 1 g
KIDNEY_TOTAL [2]: 2 g
KIDNEY_L [3]: 1.2 g
KIDNEY_R [3]: 1.2 g
KIDNEY_TOTAL [3]: 2.4 g
KIDNEY_L [4]: 1.2 g
KIDNEY_R [4]: 1.3 g
KIDNEY_TOTAL [4]: 2.5 g
LIVER [2]: 11.4 g
LIVER [3]: 13.6 g
LIVER [4]: 14.2 g
A/G [2]: 0.8
ALP [2]: 1392.6 IU/L
ALT [2]: 50 IU/L
AST [2]: 74.2 IU/L
BUN [2]: 18.2 mg/dL
CRE [2]: 0.2 mg/dL
Ca [2]: 10.8 mg/dL
Cl [2]: 107 meq/L
DBIL [2]: 0.01 mg/dL
GLC [2]: 194.2 mg/dL
IP [2]: 7.4 mg/dL
K [2]: 3.6 meq/L
LDH [2]: 81.8 IU/L
Na [2]: 144.4 meq/L
PL [2]: 162.2 mg/dL
RALB [2]: 2.6 g/dL
TBIL [2]: 0.03 mg/dL
TC [2]: 85.4 mg/dL
TG [2]: 105.4 mg/dL
TP [2]: 5.7 g/dL
gamma-GTP [2]: 1 IU/L
A/G [3]: 0.8
ALP [3]: 1782.8 IU/L
ALT [3]: 41 IU/L
AST [3]: 63 IU/L
BUN [3]: 18.8 mg/dL
CRE [3]: 0.2 mg/dL
Ca [3]: 10.6 mg/dL
Cl [3]: 105.8 meq/L
DBIL [3]: 0.01 mg/dL
GLC [3]: 208.4 mg/dL
IP [3]: 7.7 mg/dL
K [3]: 3.5 meq/L
LDH [3]: 99.6 IU/L
Na [3]: 144.6 meq/L
PL [3]: 170.2 mg/dL
RALB [3]: 2.7 g/dL
TBIL [3]: 0.02 mg/dL
TC [3]: 77.2 mg/dL
TG [3]: 175 mg/dL
TP [3]: 5.9 g/dL
gamma-GTP [3]: 1 IU/L
A/G [4]: 0.8
ALP [4]: 1238 IU/L
ALT [4]: 40.2 IU/L
AST [4]: 64 IU/L
BUN [4]: 16.2 mg/dL
CRE [4]: 0.2 mg/dL
Ca [4]: 10.4 mg/dL
Cl [4]: 107.4 meq/L
DBIL [4]: 0.008 mg/dL
GLC [4]: 196.6 mg/dL
IP [4]: 6.5 mg/dL
K [4]: 3.2 meq/L
LDH [4]: 72.6 IU/L
Na [4]: 144.8 meq/L
PL [4]: 158.8 mg/dL
RALB [4]: 2.7 g/dL
TBIL [4]: 0.016 mg/dL
TC [4]: 73.4 mg/dL
TG [4]: 149.6 mg/dL
TP [4]: 6 g/dL
gamma-GTP [4]: 1 IU/L
TERMINAL_BW [5]: 191.6 g
APTT [5]: 18.9 s
Bas [5]: 0.2%
Eos [5]: 1%
Fbg [5]: 316.6 mg/dL
Hb [5]: 13.3 g/dL
Ht [5]: 39.6%
Lym [5]: 80.6%
MCH [5]: 20.6 pg
MCHC [5]: 33.5%
MCV [5]: 61.6 fL
Mono [5]: 1.8%
Neu [5]: 15.2%
PT [5]: 16.2 s
Plat [5]: 110.6 x10_4/uL
RBC [5]: 645.4 x10_4/ul
Ret [5]: 3.8%
WBC [5]: 88.9 x10_2/uL
KIDNEY_L [5]: 0.8 g
KIDNEY_R [5]: 0.8 g
KIDNEY_TOTAL [5]: 1.7 g
LIVER [5]: 8.1 g
A/G [5]: 0.9
ALP [5]: 1546.2 IU/L
ALT [5]: 46 IU/L
AST [5]: 64.2 IU/L
BUN [5]: 14.8 mg/dL
CRE [5]: 0.2 mg/dL
Ca [5]: 10.6 mg/dL
Cl [5]: 109.8 meq/L
DBIL [5]: 0.002 mg/dL
GLC [5]: 166 mg/dL
IP [5]: 6.6 mg/dL
K [5]: 3.5 meq/L
LDH [5]: 63.2 IU/L
Na [5]: 142.4 meq/L
PL [5]: 154.8 mg/dL
RALB [5]: 2.6 g/dL
TBIL [5]: 0.02 mg/dL
TC [5]: 84.2 mg/dL
TG [5]: 55.6 mg/dL
TP [5]: 5.7 g/dL
gamma-GTP [5]: 1.2 IU/L
TERMINAL_BW [6]: 213.5 g
TERMINAL_BW [7]: 232.5 g
TERMINAL_BW [8]: 294.1 g
APTT [6]: 20.1 s
Bas [6]: 0%
Eos [6]: 1%
Fbg [6]: 286.8 mg/dL
Hb [6]: 13.1 g/dL
Ht [6]: 40.1%
Lym [6]: 81%
MCH [6]: 20.3 pg
MCHC [6]: 32.8%
MCV [6]: 62 fL
Mono [6]: 2.6%
Neu [6]: 14.6%
PT [6]: 16.4 s
Plat [6]: 111.5 x10_4/uL
RBC [6]: 647.8 x10_4/ul
Ret [6]: 5.6%
WBC [6]: 95.7 x10_2/uL
APTT [7]: 33.4 s
Bas [7]: 0%
Eos [7]: 0.8%
Fbg [7]: 283.2 mg/dL
Hb [7]: 14.4 g/dL
Ht [7]: 43.1%
Lym [7]: 83.6%
MCH [7]: 20.3 pg
MCHC [7]: 33.5%
MCV [7]: 60.5 fL
Mono [7]: 2.2%
Neu [7]: 12%
PT [7]: 16.6 s
Plat [7]: 105.9 x10_4/uL
RBC [7]: 712.6 x10_4/ul
Ret [7]: 3.8%
WBC [7]: 79.2 x10_2/uL
APTT [8]: 22.6 s
Bas [8]: 0.2%
Eos [8]: 0.8%
Fbg [8]: 282.6 mg/dL
Hb [8]: 14.5 g/dL
Ht [8]: 44.1%
Lym [8]: 78.2%
MCH [8]: 18.5 pg
MCHC [8]: 32.9%
MCV [8]: 56.1 fL
Mono [8]: 2.8%
Neu [8]: 16.8%
PT [8]: 16.7 s
Plat [8]: 93.9 x10_4/uL
RBC [8]: 786 x10_4/ul
Ret [8]: 2.3%
WBC [8]: 126.5 x10_2/uL
KIDNEY_L [6]: 0.9 g
KIDNEY_R [6]: 0.9 g
KIDNEY_TOTAL [6]: 1.8 g
KIDNEY_L [7]: 1 g
KIDNEY_R [7]: 1 g
KIDNEY_TOTAL [7]: 2.1 g
KIDNEY_L [8]: 1.2 g
KIDNEY_R [8]: 1.2 g
KIDNEY_TOTAL [8]: 2.4 g
LIVER [6]: 9.7 g
LIVER [7]: 11 g
LIVER [8]: 13.2 g
A/G [6]: 0.9
ALP [6]: 1590.8 IU/L
ALT [6]: 48 IU/L
AST [6]: 69.2 IU/L
BUN [6]: 18.6 mg/dL
CRE [6]: 0.2 mg/dL
Ca [6]: 10.9 mg/dL
Cl [6]: 110.8 meq/L
DBIL [6]: 0.004 mg/dL
GLC [6]: 187 mg/dL
IP [6]: 7.6 mg/dL
K [6]: 3.3 meq/L
LDH [6]: 68.4 IU/L
Na [6]: 145.2 meq/L
PL [6]: 165.2 mg/dL
RALB [6]: 2.6 g/dL
TBIL [6]: 0.016 mg/dL
TC [6]: 82.2 mg/dL
TG [6]: 60.2 mg/dL
TP [6]: 5.7 g/dL
gamma-GTP [6]: 1 IU/L
A/G [7]: 0.8
ALP [7]: 1780 IU/L
ALT [7]: 51 IU/L
AST [7]: 72.2 IU/L
BUN [7]: 17.6 mg/dL
CRE [7]: 0.2 mg/dL
Ca [7]: 10.3 mg/dL
Cl [7]: 111.2 meq/L
DBIL [7]: 0.004 mg/dL
GLC [7]: 182.6 mg/dL
IP [7]: 7.8 mg/dL
K [7]: 3.2 meq/L
LDH [7]: 85 IU/L
Na [7]: 145.2 meq/L
PL [7]: 158 mg/dL
RALB [7]: 2.7 g/dL
TBIL [7]: 0.012 mg/dL
TC [7]: 75 mg/dL
TG [7]: 72.4 mg/dL
TP [7]: 5.9 g/dL
gamma-GTP [7]: 1 IU/L
A/G [8]: 0.8
ALP [8]: 1231.8 IU/L
ALT [8]: 47.8 IU/L
AST [8]: 70 IU/L
BUN [8]: 20 mg/dL
CRE [8]: 0.2 mg/dL
Ca [8]: 10.5 mg/dL
Cl [8]: 110.4 meq/L
DBIL [8]: 0.002 mg/dL
GLC [8]: 196.4 mg/dL
IP [8]: 6.7 mg/dL
K [8]: 3 meq/L
LDH [8]: 67.4 IU/L
Na [8]: 146.4 meq/L
PL [8]: 148.6 mg/dL
RALB [8]: 2.7 g/dL
TBIL [8]: 0.008 mg/dL
TC [8]: 65.6 mg/dL
TG [8]: 89.4 mg/dL
TP [8]: 6 g/dL
gamma-GTP [8]: 1.2 IU/L
